Assay results from ChEMBL document CHEMBL3588849, “New indole-isoxazolone derivatives: Synthesis, characterisation and in vitro SIRT1 inhibition studies” (Bioorg Med Chem Lett, 2015).

How the values were obtained:
[1] = tested on: HEK293; test: (§1) Cytotoxicity against HEK293 cells after 72 hrs by MTT assay; format: cell-based; details: human, hek293, 72 h
[2] = as §1; format: cell-based; details: human, HEK293 cells; read-out: GI
[3] = tested on: MDA-MB-231; test: Cytotoxicity against human MDA-MB-231 cells after 72 hrs by MTT assay; format: functional, cell-based; details: MDA-MB-231, 72 h
[4] = tested on: MCF7; test: Cytotoxicity against human MCF7 cells after 72 hrs by MTT assay; format: functional, cell-based; details: MCF7, 72 h
[5] = tested on: HT-29; test: Cytotoxicity against human HT-29 cells after 72 hrs by MTT assay; format: functional, cell-based; details: HT-29, 72 h
[6] = molecular target: T1, NAD-dependent protein deacetylase sirtuin-1 (Homo sapiens, UniProt Q96EB6); test: Inhibition of SIRT1 (unknown origin) using AMC-Arg-His-Lys-Lys(Ac) substrate assessed as deacetylation of substrate by fluorimetric enzyme assay
T1 sequence (Q96EB6 whole entry): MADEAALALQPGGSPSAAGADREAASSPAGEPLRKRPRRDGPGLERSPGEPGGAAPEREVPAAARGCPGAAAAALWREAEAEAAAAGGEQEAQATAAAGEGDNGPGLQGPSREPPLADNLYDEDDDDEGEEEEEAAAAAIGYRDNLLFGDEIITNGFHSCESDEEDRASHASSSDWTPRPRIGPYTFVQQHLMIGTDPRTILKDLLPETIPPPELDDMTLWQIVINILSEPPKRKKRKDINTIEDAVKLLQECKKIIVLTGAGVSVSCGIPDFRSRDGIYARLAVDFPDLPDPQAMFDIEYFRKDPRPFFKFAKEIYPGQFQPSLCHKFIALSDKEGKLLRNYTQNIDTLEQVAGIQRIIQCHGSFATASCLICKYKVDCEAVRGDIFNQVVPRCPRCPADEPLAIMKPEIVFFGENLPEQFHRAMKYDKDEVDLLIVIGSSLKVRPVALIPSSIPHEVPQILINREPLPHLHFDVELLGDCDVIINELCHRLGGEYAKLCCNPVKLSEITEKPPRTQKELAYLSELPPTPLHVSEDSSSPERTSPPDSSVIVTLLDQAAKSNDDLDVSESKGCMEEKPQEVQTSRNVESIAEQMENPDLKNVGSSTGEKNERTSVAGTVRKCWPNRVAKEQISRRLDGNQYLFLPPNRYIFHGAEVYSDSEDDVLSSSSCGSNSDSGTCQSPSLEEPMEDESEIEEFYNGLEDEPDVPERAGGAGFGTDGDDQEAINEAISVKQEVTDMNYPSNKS

Compound | Activity [1] | other results
Cn1c(COCc2cn(Cc3ccc([N+](=O)[O-])cc3)nn2)c(/C=C2/C(=O)ON=C2C(F)(F)F)c2cc(F)ccc21 | Non-toxic | 
Cn1c(COCc2cn(Cc3ccc(OC(F)(F)F)cc3)nn2)c(/C=C2/C(=O)ON=C2C(F)(F)F)c2cc(F)ccc21 | Non-toxic | 
CC1=NOC(=O)/C1=C/c1c(COCc2ccc(C#N)cc2)n(C)c2ccc(F)cc12 | Non-toxic | 
CC1=NOC(=O)/C1=C/c1c(C(=O)NCc2ccc(F)cc2)n(C)c2ccc(F)cc12 | Non-toxic | 
CC1=NOC(=O)/C1=C/c1c(COCc2cn(Cc3ccc(C#N)cc3)nn2)n(C)c2ccc(F)cc12 | Non-toxic | 
CC1=NOC(=O)/C1=C/c1c(COCc2cn(Cc3ccc(OC(F)(F)F)cc3)nn2)n(C)c2ccc(F)cc12 | Non-toxic | 
CC1=NOC(=O)/C1=C/c1c(COCc2cn(Cc3ccc(C(F)(F)F)cc3)nn2)n(C)c2ccc(F)cc12 |  | inhibition at 72 h [2]: 30%
CC1=NOC(=O)/C1=C/c1c(COCc2ccc(C(F)(F)F)cc2)n(C)c2ccc(F)cc12 | Non-toxic | IC50 [3]: 8.23 µM; IC50 [4]: 7.72 µM; IC50 [5]: 4.82 µM; IC50 [6]: 35.2 µM
CC1=NOC(=O)/C1=C/c1c(C(=O)N2CCOCC2)n(C)c2ccc(F)cc12 | Non-toxic | 
Nc1ccn([C@@H]2O[C@H](CO)[C@@H](O)C2(F)F)c(=O)n1 [GEMCITABINE] |  | IC50 [3]: 0.65 µM; IC50 [4]: 0.15 µM; IC50 [5]: 0.52 µM
Cn1c(COCc2cn(Cc3ccc(C#N)cc3)nn2)c(/C=C2/C(=O)ON=C2C(F)(F)F)c2cc(F)ccc21 | Non-toxic | 
CCN1CCN(C(=O)c2c(/C=C3/C(=O)ON=C3C)c3cc(F)ccc3n2C)CC1 | Non-toxic | 
CC1=NOC(=O)/C1=C/c1c(C(=O)Nc2ccc(OC(F)(F)F)cc2)n(C)c2ccc(F)cc12 | Non-toxic | 
Cn1c(COCc2ccc(C(F)(F)F)cc2)c(/C=C2/C(=O)ON=C2C(F)(F)F)c2cc(F)ccc21 | Non-toxic | IC50 [3]: 5.03 µM; IC50 [4]: 5.51 µM; IC50 [5]: 2.59 µM; IC50 [6]: 37.4 µM
Cn1c(C(=O)NCc2ccc(F)cc2)c(/C=C2/C(=O)ON=C2C(F)(F)F)c2cc(F)ccc21 | Non-toxic | 
CC1=NOC(=O)/C1=C/c1c(C(=O)NCc2ccc(C)cc2)n(C)c2ccc(F)cc12 | Non-toxic | 
CCN1CCN(C(=O)c2c(/C=C3/C(=O)ON=C3C(F)(F)F)c3cc(F)ccc3n2C)CC1 |  | inhibition at 72 h [2]: 30%
Cn1c(C(=O)N2CCOCC2)c(/C=C2/C(=O)ON=C2C(F)(F)F)c2cc(F)ccc21 | Non-toxic | 
CC1=NOC(=O)/C1=C/c1c(C(=O)NCc2ccc(OC(F)(F)F)cc2)n(C)c2ccc(F)cc12 | Non-toxic | 
